Source: US9724537B2, “Abnormal electrical conduction blocking apparatus using photodynamic therapy (PDT)” (Keio University, priority 2006, dated 2017)

Tests used:
[1] = system: isolated right ventricular free wall of a Wistar rat; experiment: PDT electrical conduction block experiment in ex vivo system
Experimental: As materials, spread samples of an isolated right ventricular free wall of a Wistar rat (male, 8 to 10 weeks old) were used. The length (L) and the thickness (d) of sample photoradiation lines in each experiment are as follows.
Experiment 1: L=0.9 cm, d=1.5 mm
Experiment 2: L=0.76 cm, d=1.5 mm
Experiment 3: L=1.2 cm, d=1.4 mm
Experiment 4: L=0.88 cm, d=1.4 mm
Tyrode's solution (95% O2 and 5% CO2 gases were passed through, and the temperature was maintained at 37° C. in a constant-temperature apparatus) was used as a perfusion fluid.
Immediately after isolation, the heart was dipped in the perfusion fluid heated at about 37° C., and a right ventricular tissue was ablated. The ablated tissue was fixed on the silicon floor of a tissue bath with a 0.2 mmφ tungsten wire, and then the perfusion fluid was allowed to flow.
Immediately after rats were allowed to inhale vaporized diethyl ether, heparin and Nembutal (0.2 and 0.5 ml, respectively) were administered intraperitoneally, and approx. 0.5 ml of talaporfin sodium (Laserphyrin [registered trade name] Meiji Seika Kaisha, Ltd.) dissolved in physiological saline was intravenously injected from the vena cava of the rat lower extremity. After the heart was isolated, a right ventricular tissue was ablated in a normal Tyrode's solution and fixed in a tissue bath. Then, Tyrode's solutions in which talaporfin sodium was dissolved at various concentrations (see Reference Example 1 described later, set assuming a half of the plasma concentration at each dose and interval as blood concentration) (these are referred to as photosensitizer solutions), and loaded by circulatory perfusion for a period equal to time required from the heart isolation to bath fixation (approx. 10 min), and laser irradiation was performed with surface perfusion. The photosensitizer dose (D), the interval to heart isolation, and the concentration of the photosensitizer solution (c) in each experimental example were as follows.
Experiment 1: D=5 mg/kg; interval, 30 min; c=30 μg/ml
Experiment 2: D=5 mg/kg; interval, 60 min; c=20 μg/ml
Experiment 3: D=2 mg/kg; interval, 30 min; c=12 μg/ml
Experiment 4: D=2 mg/kg; interval, 60 min; c=8 μg/ml
A continuous semiconductor laser beam (SONY, peak wavelength, 670 band) was transmitted with a quartz fiber (core diameter, 800 μm), and the fiber was used virtually in contact with the tissue surface with an output at the end thereof being 5 mW. Laser irradiation was performed while reciprocating the fiber horizontally across the tissue over approx. 1 cm on the tissue surface. The laser irradiation time (T) and the total dose of laser irradiation (It) in each experimental example were as follows.
Experiment 1: T=60 s, It=4.2 J/cm^2
Experiment 2: T=80 s, It=6.6 J/cm^2
Experiment 3: T=267 s, It=14 J/cm^2
Experiment 4: T=500 s, It=36 J/cm^2
0.8-mA electrical stimulus was applied from a bipolar electrode (Unique Medical Co., Ltd., obtained by twining 0.2-mmφ silver chloride wires) with a stimulator and an isolator (Nihon Kohden Corporation) every 300 ms, and two bipolar electrodes for measuring a potential (Unique Medical Co., Ltd., 0.25 mmφ stainless) were placed on the tissue surface to measure a extracellular potential (FIG. 24). […] A signal was led to a bioamplifier (Physio-Tech Co., Ltd., DAM50) and recorded and analyzed using a biosignal recording/analyzing apparatus (AD Instrumens) (FIG. 25). FIG. 25 is a schematic view showing an ex vivo experimental system.
FIGS. 26 to 29 show extracellular potentials before and after PDT a led potential in each experiment. In FIGS. 26 to 29, the upper line (red line) and the lower line (blue line) in one graph represent potentials in X and Y in FIG. 24, respectively. The vertical axis represents voltage.

[2] = rat, cited from earlier work
[3] = Experiment 1: 5 mg/kg i.v., interval 30 min, 30 μg/ml, 4.2 J/cm^2
[4] = Experiment 2: 5 mg/kg i.v., interval 60 min, 20 μg/ml, 6.6 J/cm^2
[5] = Experiment 3: 2 mg/kg i.v., interval 30 min, 12 μg/ml, 14 J/cm^2
[6] = Experiment 4: 2 mg/kg i.v., interval 60 min, 8 μg/ml, 36 J/cm^2

SMILES: C=Cc1c(C)c2cc3nc(c(CC(=O)N[C@@H](CC(=O)O)C(=O)O)c4[nH]c(cc5nc(cc1[nH]2)C(C)=C5CC)c(C)c4C(=O)O)[C@@H](CCC(=O)O)[C@@H]3C [talaporfin sodium, mono-L-aspartyl chlorine 6]
- electrical conduction block after PDT [1, 3]: an electrical conduction block occurred after PDT
- time the conduction block state was maintained [1, 3]: 3 h
- electrical conduction block after PDT [1, 4]: an electrical conduction block occurred after PDT
- time the conduction block state was maintained [1, 4]: 2 h
- electrical conduction block after PDT [1, 5]: an electrical conduction block occurred after PDT
- time the conduction block state was maintained [1, 5]: 3 h
- electrical conduction block after PDT [1, 6]: an electrical conduction block occurred after PDT
- time the conduction block state was maintained [1, 6]: 3 h
- average of the half-lives in plasma from 2 to 24 h ([2]; after intravenous injection): 9.6 h
- average of the half-lives in plasma from 2 to 60 min ([2]; intravenous injection 10 mg/kg): 47 min
